Measurements from PubChem BioAssay (NCI).
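Method: 48-hour compound exposure of cells in 96-well plates, five concentrations, linear interpolation of endpoints. TGI marks complete inhibition of growth.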

Key:
Assay in all cases: growth of human tumour cells (NCI), 48 h
ACHN renal = tested on: ACHN renal
HCT-116 colon = tested on: HCT-116 colon
SK-OV-3 ovarian = tested on: SK-OV-3 ovarian
SF-268 CNS = tested on: SF-268 CNS
M14 melanoma = tested on: M14 melanoma
UACC-62 melanoma = tested on: UACC-62 melanoma
MOLT-4 leukemia = tested on: MOLT-4 leukemia
LXFL 529 NSCLC = tested on: LXFL 529 NSCLC
A549 NSCLC = tested on: A549 NSCLC
MALME-3M melanoma = tested on: MALME-3M melanoma
HOP-62 NSCLC = tested on: HOP-62 NSCLC
HCC-2998 colon = tested on: HCC-2998 colon
SF-295 CNS = tested on: SF-295 CNS
KM20L2 colon = tested on: KM20L2 colon
A498 renal = tested on: A498 renal
SNB-78 CNS = tested on: SNB-78 CNS
KM12 colon = tested on: KM12 colon
CCRF-CEM leukemia = tested on: CCRF-CEM leukemia
LOX IMVI melanoma = tested on: LOX IMVI melanoma
NCI-H226 lung = tested on: NCI-H226 lung
HL-60(TB) leukemia = tested on: HL-60(TB) leukemia
OVCAR-5 ovarian = tested on: OVCAR-5 ovarian
DLD-1 colon = tested on: DLD-1 colon
UACC-257 melanoma = tested on: UACC-257 melanoma
SR leukemia = tested on: SR leukemia
SF-539 CNS = tested on: SF-539 CNS
NCI-H460 lung = tested on: NCI-H460 lung
CAKI-1 renal = tested on: CAKI-1 renal
M19-MEL melanoma = tested on: M19-MEL melanoma
SN12C renal = tested on: SN12C renal
IGROV1 ovarian = tested on: IGROV1 ovarian
DMS 114 small cell lung = tested on: DMS 114 small cell lung
EKVX NSCLC = tested on: EKVX NSCLC
K-562 leukemia = tested on: K-562 leukemia
COLO 205 colon = tested on: COLO 205 colon
HT29 colon = tested on: HT29 colon
SK-MEL-28 melanoma = tested on: SK-MEL-28 melanoma
NCI-H23 lung = tested on: NCI-H23 lung
SNB-75 CNS = tested on: SNB-75 CNS
SK-MEL-2 melanoma = tested on: SK-MEL-2 melanoma
OVCAR-3 ovarian = tested on: OVCAR-3 ovarian
OVCAR-8 ovarian = tested on: OVCAR-8 ovarian
RPMI-8226 leukemia = tested on: RPMI-8226 leukemia
SW-620 colon = tested on: SW-620 colon
UO-31 renal = tested on: UO-31 renal
SNB-19 CNS = tested on: SNB-19 CNS
U251 CNS = tested on: U251 CNS
HOP-18 NSCLC = tested on: HOP-18 NSCLC
NCI-H522 lung = tested on: NCI-H522 lung
OVCAR-4 ovarian = tested on: OVCAR-4 ovarian
TK-10 renal = tested on: TK-10 renal
RXF 393 renal = tested on: RXF 393 renal
786-0 renal = tested on: 786-0 renal
DMS 273 small cell lung = tested on: DMS 273 small cell lung
SK-MEL-5 melanoma = tested on: SK-MEL-5 melanoma

**Q.** Which results are given for `Cc1ccc(NC(=O)c2cccc([N+](=O)[O-])c2O)c(C)c1`?
**A.** TGI (ACHN renal): 89.5 µM; TGI (HCT-116 colon): > 100 µM; TGI (SK-OV-3 ovarian): > 100 µM; TGI (SF-268 CNS): > 100 µM; TGI (M14 melanoma): > 100 µM; TGI (UACC-62 melanoma): > 100 µM; TGI (MOLT-4 leukemia): > 100 µM; TGI (LXFL 529 NSCLC): > 100 µM; TGI (A549 NSCLC): 63.8 µM; TGI (MALME-3M melanoma): 17.9 µM; TGI (HOP-62 NSCLC): > 100 µM; TGI (HCC-2998 colon): > 100 µM; TGI (SF-295 CNS): 74.3 µM; TGI (KM20L2 colon): > 100 µM; TGI (A498 renal): 63.5 µM; TGI (SNB-78 CNS): > 100 µM; TGI (KM12 colon): > 100 µM; TGI (CCRF-CEM leukemia): > 100 µM; TGI (LOX IMVI melanoma): > 100 µM; TGI (NCI-H226 lung): > 100 µM; TGI (HL-60(TB) leukemia): 55.6 µM; TGI (OVCAR-5 ovarian): > 100 µM; TGI (DLD-1 colon): > 100 µM; TGI (UACC-257 melanoma): 66.2 µM; TGI (SR leukemia): > 100 µM; TGI (SF-539 CNS): 89.6 µM; TGI (NCI-H460 lung): > 100 µM; TGI (CAKI-1 renal): 79.8 µM; TGI (M19-MEL melanoma): > 100 µM; TGI (SN12C renal): > 100 µM; TGI (IGROV1 ovarian): > 100 µM; TGI (DMS 114 small cell lung): > 100 µM; TGI (EKVX NSCLC): 98.6 µM; TGI (K-562 leukemia): > 100 µM; TGI (COLO 205 colon): > 100 µM; TGI (HT29 colon): > 100 µM; TGI (SK-MEL-28 melanoma): > 100 µM; TGI (NCI-H23 lung): > 100 µM; TGI (SNB-75 CNS): > 100 µM; TGI (SK-MEL-2 melanoma): > 100 µM; TGI (OVCAR-3 ovarian): > 100 µM; TGI (OVCAR-8 ovarian): > 100 µM; TGI (RPMI-8226 leukemia): 92.7 µM; TGI (SW-620 colon): > 100 µM; TGI (UO-31 renal): 35.1 µM; TGI (SNB-19 CNS): > 100 µM; TGI (U251 CNS): > 100 µM; TGI (HOP-18 NSCLC): 6.44 µM; TGI (NCI-H522 lung): 70.1 µM; TGI (OVCAR-4 ovarian): > 100 µM

**Q.** What does the source list for `OCCc1cnco1`?
**A.** TGI (HCT-116 colon): > 100 µM; TGI (SK-OV-3 ovarian): > 100 µM; TGI (SF-268 CNS): > 100 µM; TGI (M14 melanoma): > 100 µM; TGI (UACC-62 melanoma): > 100 µM; TGI (MOLT-4 leukemia): > 100 µM; TGI (LXFL 529 NSCLC): > 100 µM; TGI (A549 NSCLC): > 100 µM; TGI (HOP-62 NSCLC): > 100 µM; TGI (HCC-2998 colon): > 100 µM; TGI (SF-295 CNS): > 100 µM; TGI (KM20L2 colon): > 100 µM; TGI (SNB-78 CNS): > 100 µM; TGI (KM12 colon): > 100 µM; TGI (CCRF-CEM leukemia): > 100 µM; TGI (LOX IMVI melanoma): > 100 µM; TGI (NCI-H226 lung): > 100 µM; TGI (HL-60(TB) leukemia): > 100 µM; TGI (DLD-1 colon): > 100 µM; TGI (SF-539 CNS): > 100 µM; TGI (NCI-H460 lung): > 100 µM; TGI (M19-MEL melanoma): > 100 µM; TGI (SN12C renal): > 100 µM; TGI (IGROV1 ovarian): > 100 µM; TGI (TK-10 renal): > 100 µM; TGI (DMS 114 small cell lung): > 100 µM; TGI (EKVX NSCLC): > 100 µM; TGI (K-562 leukemia): > 100 µM; TGI (COLO 205 colon): > 100 µM; TGI (HT29 colon): > 100 µM; TGI (SK-MEL-28 melanoma): > 100 µM; TGI (NCI-H23 lung): > 100 µM; TGI (SNB-75 CNS): > 100 µM; TGI (RXF 393 renal): > 100 µM; TGI (OVCAR-3 ovarian): > 100 µM; TGI (OVCAR-8 ovarian): > 100 µM; TGI (786-0 renal): > 100 µM; TGI (RPMI-8226 leukemia): > 100 µM; TGI (SW-620 colon): > 100 µM; TGI (DMS 273 small cell lung): > 100 µM; TGI (SNB-19 CNS): > 100 µM; TGI (U251 CNS): > 100 µM; TGI (SK-MEL-5 melanoma): > 100 µM; TGI (HOP-18 NSCLC): > 100 µM; TGI (NCI-H522 lung): > 100 µM; TGI (OVCAR-4 ovarian): > 100 µM
